# Like-named read-outs stand apart in the source and are kept apart here.
# Tests used:
# VanSA [1] = molecular target: T1, VanSA (Enterococcus faecium, UniProt Q06240); test: VanSA autophosphorylation activity assay (Universal Kinase Activity Kit); assay type: biochemical, Enterococcus faecium BM4147; conditions: n = 3, result in words; for activity of VanSA (autophosphorylation): 5-fold molar equivalent of ligand, 20 min pre-incubation, 40 min with ATP, 25 mM HEPES pH 8.0, OD620 malachite green; for phosphorylation states of VanSA (activity profile): activity profile over 40 min
# Procedure: Assays were conducted as per the instructions provided in the R&D Systems Universal Kinase Activity Kit (Catalogue # EA004, R&D), changing the pH to 8.0; therefore all assays were conducted in 25 mM HEPES pH 8.0, 150 mM NaCl, 10 mM MgCl2, and 10 mM CaCl2. Compatibility checks for the activity of CD39L2 were made in the new conditions. A phosphate standard curve in the new assay conditions was used to determine the conversion factor (CF) for CD39L2 by calculating the slope of OD620 × phosphate input (KH2PO4). This CF was used in later calculations to determine the amount of PO4^2 − produced in later experiments. For ligand screens, VanSA (0.2 μg) was incubated in the absence and presence of 5-fold molar equivalent of ligands for 20 min prior to the initiation of autophosphorylation by the addition of ATP; after which autophosphorylation was allowed to proceed for 40 min before reactions were stopped by the addition of 30 μl Malachite Green Reagent A (ammonium molybdate in 3 M sulphuric acid) at t = 60. 100 μl distilled H2O was added to each well, followed by 30 μl of Malachite Reagent B (malachite green oxalate and polyvinyl alcohol) and the colour allowed to develop for 20 min before determining the optical density at 620 nm.
# VanSA [2] = molecular target: T1, VanSA; test: thermal denaturation of VanSA by far-UV CD (melting temperature); assay type: binding, Enterococcus faecium BM4147; conditions: 5-fold molar equivalent of ligand; for Melting temperature (Tm) of VanSA in the presence of screened ligands: monitored at 222 nm, 20–95 °C in 5 °C increments, 10 mM Tris–HCl pH 8.0 ligand stocks, 30 min at 20 °C, VanSA alone 44 ± 0.71
# Procedure: (§1) Ligand-containing samples were performed by addition of 5-fold molar equivalent of ligand stocks in 10 mM Tris–HCl pH 8.0 (control incubated with equivalent volume of 10 mM Tris–HCl pH 8.0). All samples were incubated at 20 °C for 30 min prior to data collection. All data was analysed using CDApps where the mean residue weight of VanSA was taken to be 113. Unless otherwise stated, all spectra presented are difference spectra where all relevant background buffers, ligands etc. have been subtracted. Data acquired when the HT of the detector (PMT) was equal to or > 600 V were excluded from the analyses. Far-UV measurements (180–260 nm) were commonly collected using 0.5 mg/ml of VanSA with bandwidth of 1 nm and 1 s integration time. Data presented in molar extinction (Δε). Temperature denaturation measurements were collected over the temperatures (20 °C–95 °C, in 5 °C increments) in the absence and presence of ligands. Samples were incubated at the initial 20 °C for 30 min after ligand or solvent addition prior to data acquisition. At each temperature step, reactions were incubated for 2 min prior to data collection (1 scan). A final scan was acquired post-temperature ramp after returning to 20 °C and incubation for 20 min before data acquisition. Data was analysed using CDApps to obtain difference spectra where all controls (buffers, ligands, etc.) had been subtracted. Change in CD (mdeg) at a specific wavelength was transferred to OriginPro® 9 and plotted against the corresponding temperature for fitting using Gibbs-Helmholtz equation derived from Boltzmann distribution, [65] sigmoidal two-state denaturation curve to a Boltzmann distribution and the expression modified to include parameters for fitting of thermal denaturation data for the calculation of the melting temperature (Tm).
# VanSA [3] = molecular target: T1, VanSA; test: near-UV CD ligand binding screen of VanSA; set-up: species or system Enterococcus faecium BM4147; conditions: 5-fold molar equivalent of ligand, qualitative
# Procedure: Ligand-containing samples were performed by addition of 5-fold molar equivalent of ligand stocks in 10 mM Tris–HCl pH 8.0 (control incubated with equivalent volume of 10 mM Tris–HCl pH 8.0). All samples were incubated at 20 °C for 30 min prior to data collection. All data was analysed using CDApps where the mean residue weight of VanSA was taken to be 113. Unless otherwise stated, all spectra presented are difference spectra where all relevant background buffers, ligands etc. have been subtracted. Data acquired when the HT of the detector (PMT) was equal to or > 600 V were excluded from the analyses. Far-UV measurements (180–260 nm) were commonly collected using 0.5 mg/ml of VanSA with bandwidth of 1 nm and 1 s integration time. Data presented in molar extinction (Δε). […] Data was analysed using CDApps to obtain difference spectra where all controls (buffers, ligands, etc.) had been subtracted. […]
# Near-UV measurements (260–350 nm) were collected using 1 mg/ml of protein using 10 mm pathlength cell, 2 nm bandwidth, 1 nm increments and 1 s integration. […] Change in CD (mdeg) a specific wavelength was monitored, the values transferred to OriginPro® and plotted against respective ligand concentration (M) and fitted with a hill1 binding or biphasic dose response function to determine the kd for binding.
# VanSA [4] = molecular target: T1, VanSA; test: near-UV CD titration of VanSA with ligand (binding constant); set-up: species or system Enterococcus faecium BM4147
# Procedure: as §1
# Near-UV measurements (260–350 nm) were collected using 1 mg/ml of protein using 10 mm pathlength cell, 2 nm bandwidth, 1 nm increments and 1 s integration. Titration experiments were conducted as described for standard near-UV measurements, with the modification of measurements collected after the addition of incremental volumes of ligand stock as described previously, [70]. Change in CD (mdeg) a specific wavelength was monitored, the values transferred to OriginPro® and plotted against respective ligand concentration (M) and fitted with a hill1 binding or biphasic dose response function to determine the kd for binding.
# [5] = cited from earlier work; for Kd: surface plasmon resonance and other studies, read-out: kd for vancomycin binding
# Excerpt: Using model cell wall precursor peptides such as N-acetyl-D-Ala-D-Ala, binding studies in aqueous solution have established that for many glycopeptides, the formation of entropically favourable asymmetric, back-to-back homodimers of the antibiotic, [11], [12] is mediated by sugar-sugar recognition, [13].
# VanSA [6] = molecular target: T1, VanSA; test: fluorescence emission of VanSA Trp residues with antibiotics; assay type: binding, Enterococcus faecium BM4147; conditions: excitation 295 nm, equivalent ratio 1:7, 23 °C; n = 3; VanSA alone λmax 334 nm (blue shift)
# Procedure: Fluorescence spectroscopy was carried out using a Chirascan-Plus CD Spectrometer (Applied Photophysics) using 1 cm pathlength cell (1 cm × 1 cm, 4 mm × 4 mm window) at 23 °C, 5 nm bandwidth and 600 V, 295 nm excitation wavelength to excite the VanSA Trp residues was applied to the sample and emission monitored between 300 and 500 nm in 1 nm increments. Samples incubated at 20 °C for 30 min prior to data collection.
# Data analysis performed using CDApps to obtain values which have been buffer subtracted and dilution-corrected for all components (F values) (protein only, ligand only, protein-ligand). Fo values were determined by normalisation to the initial value for each condition, followed by calculation of F/Fo using OriginPro® 9. Standard deviation (n = 3) shown by error bars.
# VanSsc = tested on: VanSsc; set-up: method as in PMID 20383152; conditions: result in words; cited from earlier work
# Excerpt: The nature of the activating inducer for VanA-type resistance remains unknown. […] Other proposed ligands include the antibiotic-peptidoglycan precursor complex and the accumulating peptidoglycan precursors as a result of vancomycin mode of action, [54]. Here, we describe the use of in vitro approaches to further characterise the ligand-induced activities of VanSA. || Previous studies identified a 4-amino-acid motif (DQGW) from the predicted extracellular binding region of VanSsc (equivalent to the type B VanS receptor in soil actinomycetes) to which a modified vancomycin photoaffinity probe bound.
# T1 sequence (Q06240 whole entry): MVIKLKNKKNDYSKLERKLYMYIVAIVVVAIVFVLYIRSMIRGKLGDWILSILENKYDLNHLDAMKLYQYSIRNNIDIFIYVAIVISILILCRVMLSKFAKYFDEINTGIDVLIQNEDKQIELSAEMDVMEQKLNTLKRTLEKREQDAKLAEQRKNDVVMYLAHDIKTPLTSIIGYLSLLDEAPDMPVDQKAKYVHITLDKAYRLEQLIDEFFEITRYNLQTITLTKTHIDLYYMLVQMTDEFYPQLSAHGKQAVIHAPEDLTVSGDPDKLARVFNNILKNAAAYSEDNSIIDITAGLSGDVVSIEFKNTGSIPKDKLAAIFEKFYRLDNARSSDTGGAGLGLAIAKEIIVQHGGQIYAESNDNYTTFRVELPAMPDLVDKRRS
Compound,activity of VanSA (autophosphorylation) (VanSA [1]),Melting temperature (Tm) of VanSA in the presence of screened ligands (VanSA [2]) [°C],phosphorylation states of VanSA (activity profile) (VanSA [1]),changes in local tertiary structure (tyrosine/tryptophan region) (VanSA [3]),binding mechanism (VanSA [4]; near-UV CD titration),fluorescence emission λmax of VanSA upon addition of antibiotic (VanSA [6]) [nm],other results
"CC(=O)N[C@H]1C(O)O[C@H](CO)[C@@H](O)[C@@H]1O[C@H](C)C(=O)O (some centres unmarked) [N-acetylmuramic acid, N-Acetylmuramic acid]",decreases in activity,44 ± 0.63,–,–,–,–,–
teicoplanin,significant increases in the activity,47 ± 5.08,"quicker, longer-lived phosphorylation states",changes to the tyrosine/tryptophan region,two-step mechanism,329,"Hill coefficient (VanSA [4]; near-UV CD titration, Bi Dose Response function, two-step, first value): 0.97 ± 0.77; Hill coefficient (VanSA [4]; near-UV CD titration, Bi Dose Response function, two-step, second value): 0.977 ± 0.76; Kd (VanSA [4]; near-UV CD titration, change in CD (mdeg) at 292 nm, BidoseResponse function, two-step mechanism, first value printed in picture, VanSA 1 mg/ml, n = 4, read-out: Binding constant (kd)): 170 µM; Kd (VanSA [4]; near-UV CD titration, change in CD (mdeg) at 292 nm, BidoseResponse function, two-step mechanism, second value printed in picture, VanSA 1 mg/ml, n = 4, read-out: Binding constant (kd)): 30 µM; potency compared with vancomycin ([5]; in vitro and in vivo, result in words): greater potency than vancomycin"
"CC(=O)N[C@@H]1[C@@H](O)[C@H](O)[C@@H](CO)O[C@H]1O [N-acetylglucosamine, N-Acetyl-D-glucosamine]",decreases in activity,–,–,–,–,–,–
Ala-D-γ-Glu-Lys-D-Ala-D-Ala [peptidoglycan component],–,51 ± 3.23,–,–,–,–,–
CN[C@H](CC(C)C)C(=O)N[C@H]1C(=O)N[C@@H](CC(N)=O)C(=O)N[C@H]2C(=O)N[C@H]3C(=O)N[C@H](C(=O)N[C@H](C(=O)O)c4cc(O)cc(O)c4-c4cc3ccc4O)[C@H](O)c3ccc(c(Cl)c3)Oc3cc2cc(c3O[C@@H]2O[C@H](CO)[C@@H](O)[C@H](O)[C@H]2O[C@H]2C[C@](C)(N)[C@H](O)[C@H](C)O2)Oc2ccc(cc2Cl)[C@H]1O [vancomycin],significant increases in the activity,79 ± 4.04,"quicker, longer-lived phosphorylation states",changes to the tyrosine/tryptophan region,one-step process of moderate affinity,328,"binding to VanS of actinomycetes (VanSsc): shown to bind in type A equivalent systems of actinomycetes; thermal stability of VanSA (VanSA [2]; far-UV thermal denaturation, result in words): significant increase of the thermal stability; Kd (VanSA [4]): 70 µM; Hill coefficient (VanSA [4]; near-UV CD titration, Hill 1 function): 1.65 ± 0.84; Kd ([5]; ref 17): 1.32 µM; Kd ([5]; ref 18): 2.7 µM; Kd ([5]; ref 19): 3.39 µM"
D-Ala-D-Ala,–,48 ± 4.07,–,–,–,–,–

# From PMC5482315 (Biochimica et Biophysica Acta, 2017)
